Experimental data taken from US12679878B2, “CRF2 receptor agonists and their use in therapy” (SANOFI, priority 2020, dated 2026).
Like-named read-outs stand apart in the source and are kept apart here. Starred links: 1 amine or outer side, 2 acyl side, 3 side chain; linkers in the order of their positions; H or OH if unused. Non-standard residues stand in square brackets, D forms with d. Residues, ends and D or L forms follow the SMILES beside them. Groups on a side chain read outwards from the residue. *: point of attachment. C18 diacid = O=C(O)CCCCCCCCCCCCCCCCC(=O)*; γGlu = O=C(O)[C@H](CCC(=O)[*:2])N[*:1]; AEEA = NCCOCCOCC(=O)O; Aib = CC(C)(N)C(=O)O

What was measured:
human CRF2α receptor = biological target: T1, human CRF2α receptor (Homo sapiens, UniProt Q13324); test: cAMP agonism at human CRF2 α receptor in TeloHEAC cells (Example 7); format: cell-based; details: cAMP HTRF, TeloHEAC cells stably expressing human CRF2 α
T1 construct: expressed in transfected cells; host or cells: TeloHEAC
T1 sequence (Q13324 1-411): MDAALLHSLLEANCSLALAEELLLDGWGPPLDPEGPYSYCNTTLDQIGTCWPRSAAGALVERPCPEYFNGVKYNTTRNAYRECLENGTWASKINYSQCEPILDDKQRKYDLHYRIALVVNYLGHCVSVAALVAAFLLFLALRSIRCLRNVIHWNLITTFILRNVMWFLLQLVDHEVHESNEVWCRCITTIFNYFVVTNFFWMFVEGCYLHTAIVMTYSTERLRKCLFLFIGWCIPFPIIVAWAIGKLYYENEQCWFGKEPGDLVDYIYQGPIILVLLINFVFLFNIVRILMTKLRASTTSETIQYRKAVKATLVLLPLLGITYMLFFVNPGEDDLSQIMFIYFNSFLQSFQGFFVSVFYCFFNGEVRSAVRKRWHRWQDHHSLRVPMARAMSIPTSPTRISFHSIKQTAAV
Summary of the method: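 Percent activation was referenced to 1000 nM UCN2 (100%), and EC50 values taken as concentrations giving half of maximal response. The read-out was a homogeneous time-resolved fluorescence cAMP kit, fluorescence ratio 665/620 nm. Thawed cells (2000/well) saw compound for 30 min at RT in buffer with 2 mM IBMX and 0%/0.1% HSA.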

CRF1R receptor = biological target: T2, CRF1R receptor (Homo sapiens, UniProt P34998); test: cAMP activity at anti-target CRF1R, CHO-K1 cell line clone 2 (Example 19.10); format: cell-based; details: CRF1R CHO-K1 clone 2; for EC50: 0% HSA, read-out: EC50 [nM] 0% HSA; for Emax: 100% = Sauvagine at 100 nM
T2 construct: host or cells: CHO-K1 clone 2
T2 sequence (P34998 24-415): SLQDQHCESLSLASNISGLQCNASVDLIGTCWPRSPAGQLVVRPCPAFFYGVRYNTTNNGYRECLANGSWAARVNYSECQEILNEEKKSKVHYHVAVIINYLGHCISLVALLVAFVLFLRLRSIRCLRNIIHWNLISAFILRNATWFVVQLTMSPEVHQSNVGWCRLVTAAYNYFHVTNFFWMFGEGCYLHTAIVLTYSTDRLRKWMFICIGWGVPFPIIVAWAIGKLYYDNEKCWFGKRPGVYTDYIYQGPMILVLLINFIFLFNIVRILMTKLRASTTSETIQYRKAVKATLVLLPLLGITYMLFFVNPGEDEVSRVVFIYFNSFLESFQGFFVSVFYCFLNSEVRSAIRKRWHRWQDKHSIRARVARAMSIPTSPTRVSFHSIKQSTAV
Summary of the method: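 The cAMP read-out used the same protocol as the previous assay, except that Sauvagine at 100 nM set the 100% activation control. Cells were CHO-K1 clone 2 overexpressing CRF1R, cultured in F12 medium with 10% FBS and G418 and stored frozen until use.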

[1] = 0% HSA, read-out: EC50 [nM], 0% HSA

SMILES	EC50 (human CRF2α receptor; [1])	EC50 (human CRF2α receptor; 0.1% HSA, read-out: EC50 [nM], 0.1% HSA)	EC50 (CRF1R receptor)	Emax (CRF1R receptor)
CC[C@H](C)[C@H](N)C(=O)N[C@H](C(=O)N[C@@H](CC(C)C)C(=O)N[C@@H](CO)C(=O)N[C@@H](CC(C)C)C(=O)N[C@@H](CC(=O)O)C(=O)N[C@H](C(=O)N1CCC[C@H]1C(=O)N[C@H](C(=O)N[C@@H](CCCCN)C(=O)N[C@@H](CC(C)C)C(=O)N[C@@H](CCCCNC(=O)COCCOCCNC(=O)COCCOCCNC(=O)CC[C@H](NC(=O)CCCCCCCCCCCCCCCCC(=O)O)C(=O)O)C(=O)N[C@@H](CCC(N)=O)C(=O)N[C@H](C(=O)N[C@@H](CC(C)C)C(=O)N[C@@H](CC(C)C)C(=O)N[C@@H](CCCCN)C(=O)N[C@@H](CCC(N)=O)C(=O)N[C@@H](CCC(=O)O)C(=O)N[C@@H](CCCNC(=N)N)C(=O)N[C@@H](CCC(N)=O)C(=O)N[C@@H](CCCCN)C(=O)N[C@@H](CCCCN)C(=O)NC(C)(C)C(=O)N[C@@H](CCCNC(=N)N)C(=O)N[C@@H](CCC(=O)O)C(=O)N[C@@H](CCC(N)=O)C(=O)N[C@@H](C)C(=O)N[C@@H](CCC(=O)O)C(=O)N[C@H](C(=O)N[C@@H](CC(N)=O)C(=O)N[C@@H](CCCCN)C(=O)N[C@@H](CCCNC(=N)N)C(=O)N[C@H](C(=O)N[C@@H](CC(C)C)C(=O)N[C@@H](CCC(=O)O)C(=O)N[C@@H](CCCNC(=N)N)C(=O)N[C@H](C(N)=O)C(C)C)[C@@H](C)CC)[C@@H](C)O)[C@@H](C)CC)[C@@H](C)CC)C(C)C)C(C)C [compound 152] (H-IVLSLDVPIKLK([AEEA-AEEA-γGlu-C18 diacid])QILLKQERQKK[Aib]REQAETNKRILERV-NH2; N-terminus assumed)	0.09 nM	4.94 nM	> 100 nM	4.9%
CC[C@H](C)[C@H](N)C(=O)N[C@H](C(=O)N[C@@H](CC(C)C)C(=O)N[C@@H](CO)C(=O)N[C@@H](CC(C)C)C(=O)N[C@@H](CC(=O)O)C(=O)N[C@H](C(=O)N1CCC[C@H]1C(=O)N[C@H](C(=O)NCC(=O)N[C@@H](CC(C)C)C(=O)N[C@@H](CCCCNC(=O)COCCOCCNC(=O)COCCOCCNC(=O)CC[C@H](NC(=O)CCCCCCCCCCCCCCCCC(=O)O)C(=O)O)C(=O)N[C@@H](CCC(N)=O)C(=O)N[C@H](C(=O)N[C@@H](CC(C)C)C(=O)N[C@@H](CC(C)C)C(=O)N[C@@H](CCCCN)C(=O)N[C@@H](CCC(N)=O)C(=O)N[C@@H](CCC(=O)O)C(=O)N[C@@H](CCCNC(=N)N)C(=O)N[C@@H](CCC(N)=O)C(=O)N[C@@H](CCCCN)C(=O)N[C@@H](CCCCN)C(=O)NC(C)(C)C(=O)N[C@@H](CCCNC(=N)N)C(=O)N[C@@H](CCC(=O)O)C(=O)N[C@@H](CCC(N)=O)C(=O)N[C@@H](C)C(=O)N[C@@H](CCC(=O)O)C(=O)N[C@H](C(=O)N[C@@H](CC(N)=O)C(=O)N[C@@H](C)C(=O)N[C@@H](CCC(N)=O)C(=O)N[C@H](C(=O)N[C@@H](CC(C)C)C(=O)N[C@@H](C)C(=O)N[C@@H](CCC(N)=O)C(=O)N[C@H](C(N)=O)C(C)C)[C@@H](C)CC)[C@@H](C)O)[C@@H](C)CC)[C@@H](C)CC)C(C)C)C(C)C [compound 156] (H-IVLSLDVPIGLK([AEEA-AEEA-γGlu-C18 diacid])QILLKQERQKK[Aib]REQAETNAQILAQV-NH2; N-terminus assumed)	1.06 nM	–	> 100 nM	4%
